Values quoted from earlier work as cited in patent US20100160295A1, “TREATMENT OF RESTLESS LEG SYNDROME AND SLEEP DISORDERS” (SYNOSIA THERAPEUTICS, priority 2008, published 2010).

Tested on: RLS patients
Settings: RLS treatment, cited from earlier work

Row | Structure (SMILES) | augmentation (worsening of symptoms following initiation of therapy), patients affected (estimated) | major side effects reported
1 | N[C@@H](Cc1ccc(O)c(O)c1)C(=O)O [levidopa] | 50-85% | 
2 | CCCN[C@H]1CCc2nc(N)sc2C1 [Pramipexole] |  | insomnia, dizziness, constipation, asthenia and hallucinations
